The values that follow come from BigSolDB 2.1.

Structures are written as SMILES.

Broadly, the solubility (mole fraction) is the moles of solute divided by all moles in the saturated solution. Take `Br.CC(C)c1ccc(NC2=NCCC3(CCCCC3)[Se]2)cc1`: the solubility (mole fraction) by setting is: (in n-hexane, 293.15 K) 4.69e-06; (in n-hexane, 298.15 K) 5.82e-06; (in n-hexane, 303.15 K) 7.39e-06; (in n-hexane, 308.15 K) 8.84e-06; (in n-hexane, 313.15 K) 1.11e-05; (in n-octanol, 293.15 K) 0.0484. The solubility (mole fraction) reads like this: (in n-octanol, 298.15 K) 0.0551; (in n-octanol, 303.15 K) 0.0647; (in n-octanol, 308.15 K) 0.0728; (in n-octanol, 313.15 K) 0.0831.
In the case of `Br.c1ccc(NC2=NCCC3(CCCCC3)[Se]2)cc1`, the solubility (mole fraction) runs as follows: (in n-hexane, 293.15 K) 4.94e-06; (in n-hexane, 298.15 K) 5.94e-06; (in n-hexane, 303.15 K) 7.1e-06; (in n-hexane, 308.15 K) 8.46e-06; (in n-hexane, 313.15 K) 9.98e-06; (in n-octanol, 293.15 K) 0.0186. Further, the solubility (mole fraction) (in n-octanol, 298.15 K) is 0.0229; the solubility (mole fraction) (in n-octanol, 303.15 K) came out at 0.0278; the solubility (mole fraction) (in n-octanol, 308.15 K) worked out at 0.0329; the solubility (mole fraction) (in n-octanol, 313.15 K) was determined as 0.0385.
As for `Br.Fc1ccc(NC2=NCCC3(CCCCC3)[Se]2)cc1`, the solubility (mole fraction) (in n-hexane, 293.15 K) came to 1.27e-06; the solubility (mole fraction) (in n-hexane, 298.15 K) was determined as 1.59e-06; the solubility (mole fraction) (in n-hexane, 303.15 K) was found to be 1.9e-06; the solubility (mole fraction) (in n-hexane, 308.15 K) was determined as 2.35e-06; the solubility (mole fraction) (in n-hexane, 313.15 K) is 2.89e-06; the solubility (mole fraction) (in n-octanol, 293.15 K) stood at 0.003. This molecule came in with a solubility (mole fraction) (in n-octanol, 298.15 K) of 0.0036; a solubility (mole fraction) (in n-octanol, 303.15 K) of 0.0042; a solubility (mole fraction) (in n-octanol, 308.15 K) of 0.0048; a solubility (mole fraction) (in n-octanol, 313.15 K) of 0.0055.
